Series [1] relates to Mycobacterium tuberculosis. Format: functional. Particulars: H37Rv, 168 h, time 7 day.
Series [2] is described as follows: Aqueous solubility of compound at pH 7.4. Format: physicochemical.
The test system of another series is CHO. The series can be described thus: Cytotoxicity against CHO cells assessed as reduction in cell viability by MTT assay. In kind it is cell-based. Particulars: Cricetulus griseus.
The next series relates to Vero. The series can be described thus: Cytotoxicity against African green monkey Vero cells assessed as reduction in cell viability by MTT assay. In kind it is cell-based. Particulars: Chlorocebus sabaeus.
Series [3] has as its system Mycobacterium tuberculosis. As to the kind of experiment: Antimycobacterial activity against wild-type Mycobacterium tuberculosis H37Rv assessed as inhibition of bacterial growth grown under middlebrook 7H9 medium incubated for 7 days by alamar blue broth microdilution method. Format: functional. To be noted: 168 h, time 7 day.
In series [4] the test system is Mycobacterium tuberculosis. The series can be described thus: Antimycobacterial activity against mmpL3 gene silenced Mycobacterium tuberculosis H37Rv assessed as inhibition of bacterial growth grown under middlebrook 7H9 medium incubated for 7 days by alamar blue broth microdilution method. Format: functional, organism-based. Particulars: time 7.0 day.
The nature of series [5]: Protein binding in human plasma assessed as unbound fraction at 5 uM incubated for 1 hr at 37 degreeC and measured after 4 hrs by ultracentrifugation based LC-MS/MS analysis. Format: ADME, cell-free. Particulars: 5 h.
Series [6] in a line: Kinetic solubility of compound at 200 uM at pH 7.4 measured after 20 hrs by HPLC-DAD analysis. In kind it is physicochemical. Particulars: buffer, pH 7.4, 20 h.

≈ marks a conversion by molar mass, not a printed value. Calls of active or inactive are those of the source. The rule behind the calls is not given here.

On to `Cc1cc(C)n(-c2nc(-c3ccc(S(C)(=O)=O)cc3)cc(=O)[nH]2)n1`, for which, in series [1], the minimum inhibitory concentration (MIC) was greater than 50 µM. Moreover, the solubility in series [2] (buffer) turned out to be 8 µM (≈ 2.76 µg/mL). Besides, in the series with CHO, the IC50 is greater than 50 µM.
As to `Cc1cc(C2CC2)n(-c2nc(C(F)(F)F)cc(=O)[nH]2)n1`, the lowest concentration to inhibit growth in series [1] (MIC) was 12 µM (≈ 3.41 µg/mL). In series [2] (buffer), this compound registered a solubility of 160 µM (≈ 45.5 µg/mL). For the same compound, the concentration for half-maximal inhibition (IC50) in the series on CHO was 78 µM.
On the same counts, the results for `Cc1cc(Nc2ccc(C#N)cc2)n(-c2nc(C(F)(F)F)cc(=O)[nH]2)n1` are 9.4 µM (≈ 3.39 µg/mL), 75 µM (≈ 27 µg/mL) and 20 µM.
`Cc1cc(N)n(-c2nc(C(F)(F)F)cc(=O)[nH]2)n1` returned a minimum inhibitory concentration (MIC) in series [1] of 20 µM (≈ 5.18 µg/mL). In series [2] (aqueous, read-out: solubility), the solubility is 200 µM (≈ 51.8 µg/mL). In addition, the IC50 with CHO is 120 µM.
As for `Cc1cc(C)n(-c2nc(C(=O)Nc3ccc(F)cc3)cc(=O)[nH]2)n1`, in series [1], the minimal inhibitory concentration (MIC) was 25 µM (≈ 8.18 µg/mL). The solubility in series [2] (aqueous, read-out: solubility) turned out to be 200 µM (≈ 65.5 µg/mL). Besides, the half-maximal inhibitory concentration (IC50) in the series on CHO is greater than 50 µM.
In the case of `Cc1nc(C)n(-c2nc(-c3ccccc3)cc(=O)[nH]2)n1`, in series [1], the MIC was greater than 125 µM. For the same compound, in series [2] (buffer), the solubility came out at 130 µM (≈ 34.7 µg/mL). In the series with CHO, the half-inhibitory concentration (IC50) is greater than 50 µM.
Take `Cc1cc(-c2ccccc2)n(-c2nc(C(F)(F)F)cc(=O)[nH]2)n1`: 25 µM (≈ 8.01 µg/mL) was the least that counted as inhibitory in series [1] (MIC). Moreover, in series [2] (aqueous, read-out: solubility), the solubility worked out at 200 µM (≈ 64.1 µg/mL). For the same compound, in the series on CHO, the IC50 was greater than 50 µM.
For `CC(=O)Nc1cc(C)nn1-c1nc(-c2ccccc2)cc(=O)[nH]1`, the MIC in series [1] is 6 µM (≈ 1.86 µg/mL); in series [3], 27 µM (≈ 8.35 µg/mL). In addition, in the series on Vero, the IC50 was 35 µM. Also, the solubility in series [2] (buffer) was found to be 150 µM (≈ 46.4 µg/mL). Besides, in series [4], the result was Active.
As for `Cc1cc(C(=O)N(C)C)nn1-c1nc(-c2ccc(F)cc2)cc(=O)[nH]1`, in series [1], the MIC is greater than 50 µM. The solubility in series [2] (buffer) came to 65 µM (≈ 22.2 µg/mL).
In the case of `Cc1cc(C)n(-c2cc(=O)cc(-c3ccccc3)[nH]2)n1`, the MIC in series [1] is greater than 50 µM. In series [2] (buffer), this compound displayed a solubility of 120 µM (≈ 31.8 µg/mL). In addition, the 50% inhibitory concentration (IC50) in the series with CHO is greater than 50 µM.
Consider `Cc1nn(-c2nc(C(F)(F)F)cc(=O)[nH]2)c(C)c1N1CCOCC1`, for which 6.25 µM (≈ 2.15 µg/mL) was the least that counted as inhibitory in series [1] (MIC). Also, in series [2] (buffer), the solubility was found to be 160 µM (≈ 54.9 µg/mL). For the same compound, in the series with CHO, the 50% inhibitory concentration (IC50) was greater than 50 µM. Further, the Fu in series [5] amounted to 0.03. Further, the Kinetic_solubility in series [6] turned out to be 160 µM.
Turning to `Nc1cc(C2CC2)nn1-c1nc(C(F)(F)F)cc(=O)[nH]1`, the minimal inhibitory concentration (MIC) in series [1] was found to be 25 µM (≈ 7.13 µg/mL). This compound gave a solubility in series [2] (buffer) of 10 µM (≈ 2.85 µg/mL). For the same compound, the half-maximal inhibitory concentration (IC50) in the series with CHO is 24 µM.
`CCOc1cc(C)nn1-c1nc(C(F)(F)F)cc(=O)[nH]1` yielded a minimum inhibitory concentration (MIC) in series [1] of 25 µM (≈ 7.21 µg/mL). The solubility in series [2] (buffer) was found to be 120 µM (≈ 34.6 µg/mL). For the same compound, the IC50 in the series on CHO is greater than 50 µM.
Turning to `Cc1cc(Nc2ccncc2)n(-c2nc(C(F)(F)F)cc(=O)[nH]2)n1`, in series [1], the minimum inhibitory concentration (MIC) is greater than 50 µM. Besides, the solubility in series [2] (buffer) was found to be 20 µM (≈ 6.73 µg/mL).
`Cc1cc(C)n(-c2cc(-c3ccccc3)nc(=O)[nH]2)n1` came in with a minimum inhibitory concentration (MIC) in series [1] of 2 µM (≈ 0.533 µg/mL). The compound also displayed a solubility in series [2] (buffer) of 30 µM (≈ 7.99 µg/mL). The 50% inhibitory concentration (IC50) with CHO is 10 µM.
As to `Cc1cc(C)n(-c2nc(-c3ccc(N4CCOCC4)cc3)cc(=O)[nH]2)n1`, the minimal inhibitory concentration (MIC) in series [1] is greater than 125 µM. In series [2] (buffer), this compound registered a solubility of 40 µM (≈ 14.1 µg/mL).
On to `Cn1ccnc1-c1nc(-c2ccccc2)cc(=O)[nH]1`, for which the minimal inhibitory concentration (MIC) in series [1] came to 20 µM (≈ 5.05 µg/mL). Further, the solubility in series [2] (aqueous, read-out: solubility) is 200 µM (≈ 50.5 µg/mL). Moreover, the IC50 in the series on CHO is 4 µM.
As for `Cc1nn(-c2nc(C(F)(F)F)cc(=O)[nH]2)c(C)c1-c1cccnc1`, in series [1], the MIC is greater than 50 µM. Further, the solubility in series [2] (buffer) came to 195 µM (≈ 65.4 µg/mL).
The compound `CNC(=O)c1ccc(-c2cc(=O)[nH]c(-n3nc(C)cc3C)n2)cc1` yielded an MIC in series [1] greater than 50 µM. The compound further returned a solubility in series [2] (buffer) of 70 µM (≈ 22.6 µg/mL). Moreover, the 50% inhibitory concentration (IC50) in the series on CHO is greater than 50 µM.
The compound `Cc1cc(C(=O)O)nn1-c1nc(-c2ccc(F)cc2)cc(=O)[nH]1` had an MIC in series [1] greater than 50 µM. This compound also had a solubility in series [2] (buffer) of 155 µM (≈ 48.7 µg/mL).
In series [1], `CCc1cc(C)nn1-c1nc(C(F)(F)F)cc(=O)[nH]1` registered an MIC of 12 µM (≈ 3.27 µg/mL). In addition, in series [2] (aqueous, read-out: solubility), the solubility was 200 µM (≈ 54.4 µg/mL). Further, the 50% inhibitory concentration (IC50) with CHO was found to be 108 µM.
`Cc1cc(C)n(-c2nc(-c3ccccc3)cc(=O)n2C)n1`: the MIC in series [1] was greater than 50 µM. In addition, the IC50 in the series with Vero was 357 µM. Further, the solubility in series [2] (aqueous, read-out: solubility) came to 200 µM (≈ 56.1 µg/mL).
Compound `Cc1cc(C)n(-c2cc(-c3ccccc3)cc(=O)n2C)n1` had an MIC in series [1] greater than 50 µM. Also, the solubility in series [2] (aqueous, read-out: solubility) stood at 185 µM (≈ 51.7 µg/mL). In the series with CHO, the IC50 is greater than 50 µM.
Consider `Cc1cc(C)n(-c2nc(C)c(-c3ccccc3)c(=O)[nH]2)n1`, for which the minimal inhibitory concentration (MIC) in series [1] stood at 9 µM (≈ 2.52 µg/mL). This compound came in with a solubility in series [2] (buffer) of 190 µM (≈ 53.3 µg/mL). In addition, the IC50 in the series on CHO worked out at 9 µM.

For the origin of these results see ChEMBL document CHEMBL4706648, “Antitubercular 2-Pyrazolylpyrimidinones: Structure-Activity Relationship and Mode-of-Action Studies” (J Med Chem, 2021).
